Measurements: PubChem BioAssay (NCI)
Where “and” joins values, the source holds several entries; their conditions need not be identical. Equal values may be shown once.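 48-hour exposure; five concentrations; linearly interpolated endpoints. GI50 is the concentration that inhibits growth by half. Definition used: TGI = concentration required for complete inhibition of growth.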

Columns and labels:
Test in all cases: NCI anticancer screen, dose series, 48 h
M14 melanoma = system: M14 melanoma
A498 renal = system: A498 renal
HS 578T breast = system: HS 578T breast
A549 NSCLC = system: A549 NSCLC
EKVX NSCLC = system: EKVX NSCLC
UACC-257 melanoma = system: UACC-257 melanoma
SNB-78 CNS = system: SNB-78 CNS
OVCAR-4 ovarian = system: OVCAR-4 ovarian
DU-145 prostate = system: DU-145 prostate
HCC-2998 colon = system: HCC-2998 colon
NCI/ADR-RES ovarian = system: NCI/ADR-RES ovarian
786-0 renal = system: 786-0 renal
U251 CNS = system: U251 CNS
UO-31 renal = system: UO-31 renal
NCI-H460 lung = system: NCI-H460 lung
SNB-19 CNS = system: SNB-19 CNS
NCI-H23 lung = system: NCI-H23 lung
DMS 273 small cell lung = system: DMS 273 small cell lung
OVCAR-3 ovarian = system: OVCAR-3 ovarian
SF-539 CNS = system: SF-539 CNS
HL-60(TB) leukemia = system: HL-60(TB) leukemia
SF-268 CNS = system: SF-268 CNS
HCT-15 colon = system: HCT-15 colon
HOP-62 NSCLC = system: HOP-62 NSCLC
OVCAR-8 ovarian = system: OVCAR-8 ovarian
HCT-116 colon = system: HCT-116 colon
TK-10 renal = system: TK-10 renal
DLD-1 colon = system: DLD-1 colon
K-562 leukemia = system: K-562 leukemia
SN12C renal = system: SN12C renal
SW-620 colon = system: SW-620 colon
CAKI-1 renal = system: CAKI-1 renal
HOP-92 NSCLC = system: HOP-92 NSCLC
SK-MEL-28 melanoma = system: SK-MEL-28 melanoma
SK-OV-3 ovarian = system: SK-OV-3 ovarian
HOP-18 NSCLC = system: HOP-18 NSCLC
COLO 205 colon = system: COLO 205 colon
SF-295 CNS = system: SF-295 CNS
NCI-H522 lung = system: NCI-H522 lung
HT29 colon = system: HT29 colon
KM20L2 colon = system: KM20L2 colon
NCI-H226 lung = system: NCI-H226 lung
MDA-MB-231 breast = system: MDA-MB-231 breast
RPMI-8226 leukemia = system: RPMI-8226 leukemia
MALME-3M melanoma = system: MALME-3M melanoma
RXF-631 renal = system: RXF-631 renal
SR leukemia = system: SR leukemia
UACC-62 melanoma = system: UACC-62 melanoma
ACHN renal = system: ACHN renal
SK-MEL-2 melanoma = system: SK-MEL-2 melanoma
CCRF-CEM leukemia = system: CCRF-CEM leukemia
RXF 393 renal = system: RXF 393 renal
SNB-75 CNS = system: SNB-75 CNS
MOLT-4 leukemia = system: MOLT-4 leukemia
DMS 114 small cell lung = system: DMS 114 small cell lung
OVCAR-5 ovarian = system: OVCAR-5 ovarian
SK-MEL-5 melanoma = system: SK-MEL-5 melanoma
XF 498 CNS = system: XF 498 CNS
IGROV1 ovarian = system: IGROV1 ovarian
LXFL 529 NSCLC = system: LXFL 529 NSCLC
KM12 colon = system: KM12 colon

Q: How did the TGI (M14 melanoma) turn out when `CC(C)(C)CC(C)(C)c1ccc(OCCOCC[N+](C)(C)Cc2ccccc2)cc1` was run?
A: 6.11 µM

Q: What about the GI50 (A498 renal) of the same molecule?
A: 1.54 µM

Q: What about the GI50 (HS 578T breast) of the same molecule?
A: 1.61 µM

Q: And the TGI (HS 578T breast)?
A: 4.81 µM

Q: And the TGI (A549 NSCLC)?
A: 32.8 µM

Q: What about the TGI (EKVX NSCLC) of the same molecule?
A: 16.9 µM

Q: What about the TGI (UACC-257 melanoma) of the same molecule?
A: 3.03 µM

Q: And the TGI (SNB-78 CNS)?
A: 4.26 µM

Q: And the TGI (OVCAR-4 ovarian)?
A: 9.38 µM

Q: What about the GI50 (DU-145 prostate) of the same molecule?
A: 1.77 µM

Q: What about the TGI (DU-145 prostate) of the same molecule?
A: 3.36 µM

Q: And the TGI (HCC-2998 colon)?
A: 4.05 µM

Q: And the GI50 (NCI/ADR-RES ovarian)?
A: 16.2 µM

Q: And the TGI (NCI/ADR-RES ovarian)?
A: 38.8 µM

Q: And the TGI (786-0 renal)?
A: 24.4 µM

Q: What about the TGI (U251 CNS) of the same molecule?
A: 4.44 µM

Q: And the GI50 (UO-31 renal)?
A: 12.4 µM

Q: And the TGI (UO-31 renal)?
A: 45.9 µM and 43 µM

Q: And the GI50 (NCI-H460 lung)?
A: 1.58 µM

Q: And the TGI (NCI-H460 lung)?
A: 3.43 µM and 11.7 µM

Q: And the TGI (SNB-19 CNS)?
A: 11.9 µM

Q: And the TGI (NCI-H23 lung)?
A: 6.01 µM

Q: And the TGI (DMS 273 small cell lung)?
A: 2.57 µM

Q: And the TGI (OVCAR-3 ovarian)?
A: 6.8 µM

Q: And the GI50 (SF-539 CNS)?
A: 1.69 µM and 2.88 µM

Q: What about the TGI (SF-539 CNS) of the same molecule?
A: 3.41 µM and 9.48 µM

Q: What about the TGI (HL-60(TB) leukemia) of the same molecule?
A: 6.31 µM

Q: What about the TGI (SF-268 CNS) of the same molecule?
A: 5.92 µM

Q: What about the GI50 (HCT-15 colon) of the same molecule?
A: 16.6 µM

Q: And the TGI (HCT-15 colon)?
A: 63.6 µM and 51.3 µM

Q: What about the TGI (HOP-62 NSCLC) of the same molecule?
A: 33.5 µM

Q: And the TGI (OVCAR-8 ovarian)?
A: 12.8 µM

Q: What about the GI50 (HCT-116 colon) of the same molecule?
A: 1.38 µM

Q: And the TGI (HCT-116 colon)?
A: 2.69 µM and 3.55 µM

Q: What about the TGI (TK-10 renal) of the same molecule?
A: 17.3 µM

Q: What about the TGI (DLD-1 colon) of the same molecule?
A: 20.3 µM

Q: What about the TGI (K-562 leukemia) of the same molecule?
A: 15.7 µM

Q: And the TGI (SN12C renal)?
A: 12.7 µM

Q: And the TGI (SW-620 colon)?
A: 21 µM

Q: And the GI50 (CAKI-1 renal)?
A: 15.1 µM

Q: And the TGI (CAKI-1 renal)?
A: 38.2 µM and 30.8 µM

Q: And the GI50 (HOP-92 NSCLC)?
A: 0.94 µM

Q: What about the TGI (HOP-92 NSCLC) of the same molecule?
A: 2.27 µM and 4.76 µM

Q: What about the TGI (SK-MEL-28 melanoma) of the same molecule?
A: 3.68 µM

Q: And the GI50 (SK-OV-3 ovarian)?
A: 1.46 µM

Q: What about the TGI (SK-OV-3 ovarian) of the same molecule?
A: 2.94 µM and 25.7 µM

Q: And the TGI (HOP-18 NSCLC)?
A: 7.32 µM

Q: And the TGI (COLO 205 colon)?
A: 2.91 µM

Q: And the TGI (SF-295 CNS)?
A: 28.4 µM

Q: What about the TGI (NCI-H522 lung) of the same molecule?
A: 6.42 µM

Q: And the GI50 (HT29 colon)?
A: 1.14 µM

Q: What about the TGI (HT29 colon) of the same molecule?
A: 2.49 µM and 3.3 µM

Q: What about the TGI (KM20L2 colon) of the same molecule?
A: 18.8 µM

Q: What about the TGI (NCI-H226 lung) of the same molecule?
A: 15.7 µM

Q: And the GI50 (MDA-MB-231 breast)?
A: 1.34 µM

Q: And the TGI (MDA-MB-231 breast)?
A: 2.82 µM

Q: What about the TGI (RPMI-8226 leukemia) of the same molecule?
A: 3.83 µM

Q: What about the TGI (MALME-3M melanoma) of the same molecule?
A: 3.64 µM

Q: And the TGI (RXF-631 renal)?
A: 34.2 µM

Q: What about the GI50 (SR leukemia) of the same molecule?
A: 1.75 µM

Q: What about the GI50 (UACC-62 melanoma) of the same molecule?
A: 0.678 µM

Q: What about the TGI (UACC-62 melanoma) of the same molecule?
A: 2.09 µM and 2.67 µM

Q: What about the GI50 (ACHN renal) of the same molecule?
A: 6.95 µM

Q: And the TGI (ACHN renal)?
A: 32.9 µM and 26.7 µM

Q: What about the TGI (SK-MEL-2 melanoma) of the same molecule?
A: 9.71 µM

Q: And the TGI (CCRF-CEM leukemia)?
A: 6.36 µM

Q: What about the TGI (RXF 393 renal) of the same molecule?
A: 10.3 µM

Q: And the GI50 (SNB-75 CNS)?
A: 0.962 µM

Q: What about the TGI (SNB-75 CNS) of the same molecule?
A: 2.34 µM and 5.55 µM

Q: And the TGI (MOLT-4 leukemia)?
A: 6.05 µM

Q: What about the TGI (DMS 114 small cell lung) of the same molecule?
A: 4.02 µM

Q: And the GI50 (OVCAR-5 ovarian)?
A: 1.7 µM

Q: And the TGI (OVCAR-5 ovarian)?
A: 3.25 µM and 19.2 µM

Q: For `C/C(=C\Cc1cc(O)ccc1O)CCc1c(C)cc(O)c(C=O)c1C`, which TGI (M14 melanoma) is on record?
A: 63.1 µM

Q: What about the TGI (SK-MEL-5 melanoma) of the same molecule?
A: 31.7 µM

Q: What about the TGI (A498 renal) of the same molecule?
A: > 100 µM

Q: And the TGI (A549 NSCLC)?
A: > 100 µM

Q: What about the TGI (EKVX NSCLC) of the same molecule?
A: > 100 µM

Q: And the TGI (OVCAR-4 ovarian)?
A: > 100 µM

Q: And the TGI (HCC-2998 colon)?
A: > 100 µM

Q: And the TGI (786-0 renal)?
A: 62.6 µM

Q: And the TGI (U251 CNS)?
A: 67.6 µM

Q: And the TGI (UO-31 renal)?
A: 78.1 µM

Q: What about the TGI (NCI-H460 lung) of the same molecule?
A: 67.2 µM

Q: What about the TGI (SNB-19 CNS) of the same molecule?
A: > 100 µM

Q: And the TGI (NCI-H23 lung)?
A: 70.8 µM

Q: And the TGI (DMS 273 small cell lung)?
A: 55.4 µM

Q: And the TGI (OVCAR-3 ovarian)?
A: 53.1 µM

Q: What about the TGI (SF-539 CNS) of the same molecule?
A: 38.3 µM

Q: What about the TGI (HL-60(TB) leukemia) of the same molecule?
A: > 100 µM

Q: And the TGI (XF 498 CNS)?
A: 45.2 µM

Q: And the TGI (SF-268 CNS)?
A: 46 µM

Q: And the TGI (HCT-15 colon)?
A: 84.5 µM

Q: What about the TGI (OVCAR-8 ovarian) of the same molecule?
A: 33.9 µM

Q: What about the TGI (HCT-116 colon) of the same molecule?
A: 41 µM

Q: What about the TGI (IGROV1 ovarian) of the same molecule?
A: 50.5 µM

Q: What about the TGI (TK-10 renal) of the same molecule?
A: > 100 µM

Q: And the TGI (DLD-1 colon)?
A: 55.1 µM

Q: What about the TGI (K-562 leukemia) of the same molecule?
A: > 100 µM

Q: And the TGI (SN12C renal)?
A: 92.4 µM

Q: What about the TGI (SW-620 colon) of the same molecule?
A: > 100 µM

Q: What about the TGI (CAKI-1 renal) of the same molecule?
A: 63.5 µM

Q: And the TGI (HOP-92 NSCLC)?
A: 35.3 µM

Q: And the TGI (SK-MEL-28 melanoma)?
A: 54.7 µM

Q: What about the TGI (SK-OV-3 ovarian) of the same molecule?
A: > 100 µM

Q: What about the TGI (HOP-18 NSCLC) of the same molecule?
A: 53.4 µM

Q: What about the TGI (COLO 205 colon) of the same molecule?
A: 33.4 µM

Q: What about the TGI (LXFL 529 NSCLC) of the same molecule?
A: 30.2 µM

Q: And the TGI (SF-295 CNS)?
A: 79 µM

Q: And the TGI (NCI-H522 lung)?
A: 23.6 µM

Q: And the TGI (HT29 colon)?
A: 48.6 µM

Q: What about the TGI (KM20L2 colon) of the same molecule?
A: > 100 µM

Q: What about the TGI (NCI-H226 lung) of the same molecule?
A: 78.5 µM

Q: What about the TGI (RPMI-8226 leukemia) of the same molecule?
A: > 100 µM

Q: What about the TGI (MALME-3M melanoma) of the same molecule?
A: 53.8 µM

Q: What about the TGI (KM12 colon) of the same molecule?
A: > 100 µM

Q: What about the TGI (SR leukemia) of the same molecule?
A: > 100 µM

Q: What about the TGI (ACHN renal) of the same molecule?
A: 44.3 µM

Q: What about the TGI (SK-MEL-2 melanoma) of the same molecule?
A: 58.6 µM

Q: And the GI50 (CCRF-CEM leukemia)?
A: 4.46 µM

Q: What about the TGI (CCRF-CEM leukemia) of the same molecule?
A: 30.5 µM

Q: And the TGI (RXF 393 renal)?
A: 37.1 µM

Q: What about the TGI (SNB-75 CNS) of the same molecule?
A: 77.4 µM

Q: What about the TGI (MOLT-4 leukemia) of the same molecule?
A: > 100 µM

Q: What about the TGI (DMS 114 small cell lung) of the same molecule?
A: 31.2 µM
